Results: patent US9340590B2 (priority 2011, dated 2016)
Where two headings read alike, the source gives them in different places. Positions of bridges follow the written chain, without caps; N, C: chain ends. Non-standard residues stand in square brackets, D forms with d. Residues, ends and D or L forms follow the SMILES beside them. 2Nal = N[C@@H](Cc1ccc2ccccc2c1)C(=O)O

Assays:
Assay in all cases: cell-based
hNav1.5 = hNav1.5 (Homo sapiens, UniProt Q14524)
hNav1.3 = hNav1.3 (Homo sapiens, UniProt Q9NY46); details: IonWorks Quattro, read-out: IWQ Use Nav1.3
hNav1.7 = hNav1.7 (Homo sapiens, UniProt Q15858); format: cell-based
Chain of hNav1.7 (Q15858 whole entry, looked up): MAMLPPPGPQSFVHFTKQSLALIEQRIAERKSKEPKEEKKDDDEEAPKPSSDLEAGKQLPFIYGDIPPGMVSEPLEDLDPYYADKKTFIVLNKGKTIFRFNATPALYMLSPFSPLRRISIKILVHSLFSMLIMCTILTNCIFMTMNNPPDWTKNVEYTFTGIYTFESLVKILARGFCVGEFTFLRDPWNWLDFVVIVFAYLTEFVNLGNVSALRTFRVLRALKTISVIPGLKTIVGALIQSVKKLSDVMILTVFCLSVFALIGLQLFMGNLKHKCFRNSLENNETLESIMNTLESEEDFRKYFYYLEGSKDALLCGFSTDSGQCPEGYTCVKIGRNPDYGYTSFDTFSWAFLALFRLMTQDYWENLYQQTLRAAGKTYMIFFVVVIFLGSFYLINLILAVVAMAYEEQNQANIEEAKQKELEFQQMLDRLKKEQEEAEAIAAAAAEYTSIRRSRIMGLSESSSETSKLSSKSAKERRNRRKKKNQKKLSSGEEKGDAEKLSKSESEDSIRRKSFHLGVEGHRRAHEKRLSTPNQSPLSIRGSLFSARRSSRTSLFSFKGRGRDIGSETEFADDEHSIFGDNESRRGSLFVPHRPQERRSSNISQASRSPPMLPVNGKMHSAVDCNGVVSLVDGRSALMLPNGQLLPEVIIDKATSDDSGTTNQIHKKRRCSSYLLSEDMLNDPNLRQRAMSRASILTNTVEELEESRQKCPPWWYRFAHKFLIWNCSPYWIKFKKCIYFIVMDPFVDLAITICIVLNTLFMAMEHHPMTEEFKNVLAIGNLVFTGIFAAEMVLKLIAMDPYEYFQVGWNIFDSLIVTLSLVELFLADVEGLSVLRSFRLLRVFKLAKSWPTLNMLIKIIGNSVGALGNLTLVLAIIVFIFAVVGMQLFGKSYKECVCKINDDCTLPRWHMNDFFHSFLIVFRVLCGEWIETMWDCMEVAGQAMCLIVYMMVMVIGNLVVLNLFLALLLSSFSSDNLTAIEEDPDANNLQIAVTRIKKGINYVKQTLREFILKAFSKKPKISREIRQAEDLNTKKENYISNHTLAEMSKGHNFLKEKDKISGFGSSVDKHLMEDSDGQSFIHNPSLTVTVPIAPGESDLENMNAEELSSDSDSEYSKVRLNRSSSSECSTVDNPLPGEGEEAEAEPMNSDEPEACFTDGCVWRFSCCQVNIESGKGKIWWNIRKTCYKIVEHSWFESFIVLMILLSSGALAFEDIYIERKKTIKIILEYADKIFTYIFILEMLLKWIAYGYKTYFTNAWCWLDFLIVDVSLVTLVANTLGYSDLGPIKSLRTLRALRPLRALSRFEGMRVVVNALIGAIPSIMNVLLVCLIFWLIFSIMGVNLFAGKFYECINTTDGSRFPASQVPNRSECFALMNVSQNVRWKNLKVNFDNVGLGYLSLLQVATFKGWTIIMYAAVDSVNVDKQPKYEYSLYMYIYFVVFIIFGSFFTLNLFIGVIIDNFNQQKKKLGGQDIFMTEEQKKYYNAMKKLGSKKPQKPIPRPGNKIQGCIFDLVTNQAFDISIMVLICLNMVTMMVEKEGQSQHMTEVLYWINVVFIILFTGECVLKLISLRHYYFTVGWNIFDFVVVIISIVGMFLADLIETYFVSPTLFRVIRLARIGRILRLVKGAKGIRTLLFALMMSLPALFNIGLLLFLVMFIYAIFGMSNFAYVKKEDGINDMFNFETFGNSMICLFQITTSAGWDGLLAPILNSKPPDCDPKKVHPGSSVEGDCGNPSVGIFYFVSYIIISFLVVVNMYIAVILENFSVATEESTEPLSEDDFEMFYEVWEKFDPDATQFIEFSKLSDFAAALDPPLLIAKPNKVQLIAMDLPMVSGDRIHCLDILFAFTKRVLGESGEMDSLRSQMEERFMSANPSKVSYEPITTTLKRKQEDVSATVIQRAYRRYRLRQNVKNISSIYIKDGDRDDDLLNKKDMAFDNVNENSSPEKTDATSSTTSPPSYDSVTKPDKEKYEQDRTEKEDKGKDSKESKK

[1] = IonWorks Quattro, use-dependent block, hNav1.5, read-out: IWQ Use Nav1.5
[2] = IonWorks Quattro, use-dependent block, hNav1.7, read-out: IWQ Use Nav1.7

Chain of hNav1.5 (Q14524 whole entry, looked up): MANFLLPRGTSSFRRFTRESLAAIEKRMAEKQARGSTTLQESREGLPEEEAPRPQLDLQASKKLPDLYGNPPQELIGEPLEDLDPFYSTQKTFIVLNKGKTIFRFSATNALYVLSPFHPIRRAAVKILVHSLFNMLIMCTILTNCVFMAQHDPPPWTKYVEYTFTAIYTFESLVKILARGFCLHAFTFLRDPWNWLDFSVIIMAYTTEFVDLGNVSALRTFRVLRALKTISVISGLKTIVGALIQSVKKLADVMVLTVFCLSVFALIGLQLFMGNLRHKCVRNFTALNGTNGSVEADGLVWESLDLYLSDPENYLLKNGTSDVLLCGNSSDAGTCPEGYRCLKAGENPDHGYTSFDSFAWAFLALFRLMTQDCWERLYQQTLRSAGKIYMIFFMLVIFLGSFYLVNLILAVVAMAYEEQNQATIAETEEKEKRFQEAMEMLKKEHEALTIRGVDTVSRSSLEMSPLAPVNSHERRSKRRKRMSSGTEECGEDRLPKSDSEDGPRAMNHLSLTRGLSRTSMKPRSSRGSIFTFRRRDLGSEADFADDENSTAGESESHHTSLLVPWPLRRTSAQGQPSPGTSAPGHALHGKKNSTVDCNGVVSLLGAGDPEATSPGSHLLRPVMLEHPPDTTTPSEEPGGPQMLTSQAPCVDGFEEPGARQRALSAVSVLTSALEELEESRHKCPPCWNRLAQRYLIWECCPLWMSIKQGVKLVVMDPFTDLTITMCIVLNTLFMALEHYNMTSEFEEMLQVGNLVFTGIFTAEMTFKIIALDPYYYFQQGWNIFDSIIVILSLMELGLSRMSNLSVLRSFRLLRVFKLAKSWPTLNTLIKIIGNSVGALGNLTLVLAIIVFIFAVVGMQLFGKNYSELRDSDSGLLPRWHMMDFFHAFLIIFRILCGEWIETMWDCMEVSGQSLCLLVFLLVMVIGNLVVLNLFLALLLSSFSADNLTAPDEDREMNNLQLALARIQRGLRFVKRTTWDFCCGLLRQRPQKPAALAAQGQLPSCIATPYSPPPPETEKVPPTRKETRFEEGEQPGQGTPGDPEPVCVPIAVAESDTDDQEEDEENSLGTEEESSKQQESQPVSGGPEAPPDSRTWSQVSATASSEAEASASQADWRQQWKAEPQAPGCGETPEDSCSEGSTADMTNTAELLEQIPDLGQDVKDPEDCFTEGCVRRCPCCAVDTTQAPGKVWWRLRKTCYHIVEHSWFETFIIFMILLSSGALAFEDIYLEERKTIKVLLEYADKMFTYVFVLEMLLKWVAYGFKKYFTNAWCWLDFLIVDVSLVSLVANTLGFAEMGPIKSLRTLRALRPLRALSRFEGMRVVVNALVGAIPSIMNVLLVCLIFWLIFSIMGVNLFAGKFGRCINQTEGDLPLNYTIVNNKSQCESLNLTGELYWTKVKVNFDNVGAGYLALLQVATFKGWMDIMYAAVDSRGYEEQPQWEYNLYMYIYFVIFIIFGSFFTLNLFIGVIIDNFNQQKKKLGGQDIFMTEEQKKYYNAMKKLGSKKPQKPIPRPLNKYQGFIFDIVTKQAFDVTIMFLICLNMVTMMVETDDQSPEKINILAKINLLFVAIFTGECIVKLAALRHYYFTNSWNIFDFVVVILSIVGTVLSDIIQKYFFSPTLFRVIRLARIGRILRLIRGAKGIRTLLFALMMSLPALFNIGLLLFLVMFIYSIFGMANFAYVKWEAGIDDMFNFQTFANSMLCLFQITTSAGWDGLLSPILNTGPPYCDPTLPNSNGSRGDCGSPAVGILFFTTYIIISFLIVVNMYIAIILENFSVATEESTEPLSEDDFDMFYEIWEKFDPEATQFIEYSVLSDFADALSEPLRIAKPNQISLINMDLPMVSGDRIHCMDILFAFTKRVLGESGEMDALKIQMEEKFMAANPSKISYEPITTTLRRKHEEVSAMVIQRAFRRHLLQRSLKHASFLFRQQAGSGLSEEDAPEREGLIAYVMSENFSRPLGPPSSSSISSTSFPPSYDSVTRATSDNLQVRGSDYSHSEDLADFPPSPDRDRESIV

CC[C@H](C)[C@@H]1NC(=O)[C@@H]2CSSC[C@@H]3NC(=O)[C@H](C(C)C)NC(=O)[C@H](CC(C)C)NC(=O)[C@H](CC(N)=O)NC(=O)[C@@H]4CCCN4C(=O)[C@H](CCCNC(=N)N)NC(=O)[C@H](CSSC[C@H](NC(=O)[C@@H](N)CC(=O)O)C(=O)N[C@@H](CC(C)C)C(=O)NCC(=O)N[C@@H](Cc4ccc5ccccc5c4)C(=O)N[C@@H](CCSC)C(=O)N[C@@H](CCCNC(=N)N)C(=O)N[C@@H](CCCCN)C(=O)N2)NC(=O)[C@H](CSSC[C@@H](C(=O)N[C@@H](CCCCN)C(=O)N[C@@H](Cc2ccc(O)cc2)C(=O)N[C@H](C(=O)N[C@@H](Cc2ccc4ccccc4c2)C(N)=O)C(C)C)NC(=O)[C@H](Cc2c[nH]c4ccccc24)NC(=O)[C@H](CCCCN)NC(=O)[C@H](Cc2c[nH]cn2)NC(=O)[C@H]([C@@H](C)O)NC(=O)[C@H](CCCNC(=N)N)NC(=O)[C@H](CO)NC3=O)NC(=O)[C@H](CCCCN)NC(=O)[C@H](CC(=O)O)NC(=O)[C@H](CC(N)=O)NC(=O)[C@H](CC(=O)O)NC(=O)[C@@H]2CCCN2C1=O [compound 136] (H-DCLG[2Nal]MRKCIPDNDKCCRPNLVCSRTHKWCKYV[2Nal]-NH2; disulfide 2-17, 9-23, 16-30)
IC50 (hNav1.5; [1]): 5.14 µM | IC50 (hNav1.3; use-dependent block, hNav1.3): 0.03 µM | IC50 (hNav1.7; [2]): 0.14 µM

CC[C@H](C)[C@@H]1NC(=O)[C@@H]2CSSC[C@@H]3NC(=O)[C@H](C(C)C)NC(=O)[C@H](CC(C)C)NC(=O)[C@H](CC(N)=O)NC(=O)[C@@H]4CCCN4C(=O)[C@H](CCCNC(=N)N)NC(=O)[C@H](CSSC[C@H](NC(=O)[C@@H](N)CC(=O)O)C(=O)N[C@@H](CC(C)C)C(=O)NCC(=O)N[C@@H](Cc4ccccc4)C(=O)N[C@@H](CCSC)C(=O)N[C@@H](CCCNC(=N)N)C(=O)N[C@@H](CCCCN)C(=O)N2)NC(=O)[C@H](CSSC[C@@H](C(=O)N[C@@H](CCCCN)C(N)=O)NC(=O)[C@H](Cc2c[nH]c4ccccc24)NC(=O)[C@H](CCCCN)NC(=O)[C@H](Cc2cnc[nH]2)NC(=O)[C@H]([C@@H](C)O)NC(=O)[C@H](CCCNC(=N)N)NC(=O)[C@H](CO)NC3=O)NC(=O)[C@H](CCCCN)NC(=O)[C@H](CC(=O)O)NC(=O)[C@H](CC(N)=O)NC(=O)[C@H](CC(=O)O)NC(=O)[C@@H]2CCCN2C1=O [compound 417] (H-DCLGFMRKCIPDNDKCCRPNLVCSRTHKWCK-NH2; disulfide 2-17, 9-23, 16-30)
IC50 (hNav1.5; IWQ Use Nav1.5 (μM)): 11.9 µM | IC50 (hNav1.3; use-dependent, […]): 9.09 µM | IC50 (hNav1.7; IonWorks Quattro, use-dependent, […], read-out: IWQ Use Nav1.7 (μm)): 18.3 µM

CC[C@H](C)[C@@H]1NC(=O)[C@@H]2CSSC[C@@H]3NC(=O)[C@H](C(C)C)NC(=O)[C@H](CC(C)C)NC(=O)[C@H](CC(N)=O)NC(=O)[C@@H]4CCCN4C(=O)[C@H](CCCNC(=N)N)NC(=O)[C@H](CSSC[C@H](NC(=O)[C@@H](N)CC(=O)O)C(=O)N[C@@H](CC(C)C)C(=O)NCC(=O)N[C@@H](Cc4ccccc4)C(=O)N[C@@H](CCSC)C(=O)N[C@@H](CCCNC(=N)N)C(=O)N[C@@H](CCCCN)C(=O)N2)NC(=O)[C@H](CSSC[C@@H](C(=O)N[C@@H](CCCCN)C(=O)N[C@@H](Cc2ccc(O)cc2)C(=O)N[C@H](C(=O)N[C@@H](Cc2ccccc2)C(N)=O)C(C)C)NC(=O)[C@H](Cc2c[nH]c4ccccc24)NC(=O)[C@H](CCCCN)NC(=O)[C@H](Cc2cnc[nH]2)NC(=O)[C@H](CCCNC(=N)N)NC(=O)[C@H](CCCNC(=N)N)NC(=O)[C@H](CO)NC3=O)NC(=O)[C@H](CCCCN)NC(=O)[C@H](CC(=O)O)NC(=O)[C@H](CC(N)=O)NC(=O)[C@H](CC(=O)O)NC(=O)[C@@H]2CCCN2C1=O [compound 70] (H-DCLGFMRKCIPDNDKCCRPNLVCSRRHKWCKYVF-NH2; disulfide 2-17, 9-23, 16-30)
IC50 (hNav1.5; IWQ Use Nav1.5 (μM)): 3.06 µM | IC50 (hNav1.3; Table 22, use, […]): 0.008 µM | IC50 (hNav1.7; Table 22, IonWorks Quattro, use, […], read-out: IWQ Use Nav1.7): 0.03 µM

CC[C@H](C)[C@@H]1NC(=O)[C@@H]2CSSC[C@@H]3NC(=O)[C@H](C(C)C)NC(=O)[C@H](CC(C)C)NC(=O)[C@H](CC(N)=O)NC(=O)[C@@H]4CCCN4C(=O)[C@H](CCCNC(=N)N)NC(=O)[C@H](CSSC[C@H](NC(=O)[C@@H](N)CC(=O)O)C(=O)N[C@@H](CC(C)C)C(=O)NCC(=O)N[C@@H](Cc4ccccc4)C(=O)N[C@@H](CCSC)C(=O)N[C@@H](CCCNC(=N)N)C(=O)N[C@@H](CCCCN)C(=O)N2)NC(=O)[C@H](CSSC[C@@H](C(=O)N[C@@H](CCCCN)C(=O)N[C@@H](Cc2ccc(O)cc2)C(=O)N[C@H](C(=O)N[C@@H](C)C(N)=O)C(C)C)NC(=O)[C@H](Cc2c[nH]c4ccccc24)NC(=O)[C@H](CCCCN)NC(=O)[C@H](Cc2cnc[nH]2)NC(=O)[C@H]([C@@H](C)O)NC(=O)[C@H](CCCNC(=N)N)NC(=O)[C@H](CO)NC3=O)NC(=O)[C@H](CCCCN)NC(=O)[C@H](CC(=O)O)NC(=O)[C@H](CC(N)=O)NC(=O)[C@H](CC(=O)O)NC(=O)[C@@H]2CCCN2C1=O [compound 101] (H-DCLGFMRKCIPDNDKCCRPNLVCSRTHKWCKYVA-NH2; disulfide 2-17, 9-23, 16-30)
IC50 (hNav1.5; IonWorks Quattro, use-dependent, […], read-out: IWQ Use Nav1.5): 9.33 µM | IC50 (hNav1.3; use-dependent, […]): 4.76 µM | IC50 (hNav1.7): 7.19 µM

CC[C@H](C)[C@@H]1NC(=O)[C@@H]2CSSC[C@@H]3NC(=O)[C@H](C(C)C)NC(=O)[C@H](CC(C)C)NC(=O)[C@H](CC(N)=O)NC(=O)[C@@H]4CCCN4C(=O)[C@H](CCCNC(=N)N)NC(=O)[C@H](CSSC[C@H](NC(=O)[C@@H](N)CC(=O)O)C(=O)N[C@@H](CC(C)C)C(=O)NCC(=O)N[C@@H](CO)C(=O)N[C@@H](CC(C)C)C(=O)N[C@@H](CCCNC(=N)N)C(=O)N[C@@H](CCCCN)C(=O)N2)NC(=O)[C@H](CSSC[C@@H](C(=O)N[C@@H](CCCCN)C(=O)N[C@@H](Cc2ccc(O)cc2)C(=O)N[C@H](C(=O)N[C@@H](Cc2ccccc2)C(N)=O)C(C)C)NC(=O)[C@H](Cc2c[nH]c4ccccc24)NC(=O)[C@H](CCCCN)NC(=O)[C@H](Cc2c[nH]cn2)NC(=O)[C@H]([C@@H](C)O)NC(=O)[C@H](CCCNC(=N)N)NC(=O)[C@H](CO)NC3=O)NC(=O)[C@H](CCCCN)NC(=O)[C@H](CC(=O)O)NC(=O)[C@H](CC(N)=O)NC(=O)[C@H](CC(=O)O)NC(=O)[C@@H]2CCCN2C1=O [compound 643] (H-DCLGSLRKCIPDNDKCCRPNLVCSRTHKWCKYVF-NH2; disulfide 2-17, 9-23, 16-30)
IC50 (hNav1.5; IonWorks Quattro, use-dependent protocol, hNav1.5, read-out: IWQ Use Nav1.5): > 5 µM | IC50 (hNav1.3; use-dependent protocol, hNav1.3): 3.2 µM | IC50 (hNav1.7; IonWorks Quattro, use-dependent protocol, hNav1.7, read-out: IWQ Use Nav1.7): 1.3 µM

CC[C@H](C)[C@@H]1NC(=O)[C@@H]2CSSC[C@@H]3NC(=O)[C@H](C(C)C)NC(=O)[C@H](CC(C)C)NC(=O)[C@H](CC(N)=O)NC(=O)[C@@H]4CCCN4C(=O)[C@H](CCCNC(=N)N)NC(=O)[C@H](CSSC[C@H](NC(=O)[C@@H](N)CC(=O)O)C(=O)N[C@@H](CC(C)C)C(=O)NCC(=O)N[C@@H](Cc4ccccc4)C(=O)N[C@@H](CCSC)C(=O)N[C@@H](CCCNC(=N)N)C(=O)N[C@@H](CCCCN)C(=O)N2)NC(=O)[C@H](CSSC[C@@H](C(=O)N[C@@H](CCCCN)C(=O)N[C@H](C(=O)N[C@H](C(=O)N[C@@H](Cc2ccccc2)C(N)=O)C(C)C)[C@@H](C)O)NC(=O)[C@H](Cc2c[nH]c4ccccc24)NC(=O)[C@H](CCCCN)NC(=O)[C@H](Cc2c[nH]cn2)NC(=O)[C@H]([C@@H](C)O)NC(=O)[C@H](CCCNC(=N)N)NC(=O)[C@H](CO)NC3=O)NC(=O)[C@H](CCCCN)NC(=O)[C@H](CC(=O)O)NC(=O)[C@H](CC(N)=O)NC(=O)[C@H](CC(=O)O)NC(=O)[C@@H]2CCCN2C1=O [compound 369] (H-DCLGFMRKCIPDNDKCCRPNLVCSRTHKWCKTVF-NH2; disulfide 2-17, 9-23, 16-30)
IC50 (hNav1.5; Table 25, IonWorks Quattro, use, […], read-out: IWQ Use Nav1.5): 11.1 µM | IC50 (hNav1.3; Table 25, use, […]): 3.29 µM | IC50 (hNav1.7; Table 25, IonWorks Quattro, use, […], read-out: IWQ Use Nav1.7): 3.54 µM

CC[C@H](C)[C@@H]1NC(=O)[C@@H]2CSSC[C@@H]3NC(=O)[C@H](C(C)C)NC(=O)[C@H](CC(C)C)NC(=O)[C@H](CC(N)=O)NC(=O)[C@@H]4CCCN4C(=O)[C@H](CCCNC(=N)N)NC(=O)[C@H](CSSC[C@H](NC(=O)[C@@H](N)CC(=O)O)C(=O)N[C@@H](CC(C)C)C(=O)NCC(=O)N[C@@H](C)C(=O)N[C@@H](CC(C)C)C(=O)N[C@@H](CCCNC(=N)N)C(=O)N[C@@H](CCCCN)C(=O)N2)NC(=O)[C@H](CSSC[C@@H](C(=O)N[C@@H](CCCCN)C(=O)N[C@@H](Cc2ccc(O)cc2)C(=O)N[C@H](C(=O)N[C@@H](Cc2ccccc2)C(=O)O)C(C)C)NC(=O)[C@H](Cc2c[nH]c4ccccc24)NC(=O)[C@H](CCCNC(=N)N)NC(=O)[C@H](Cc2c[nH]cn2)NC(=O)[C@H]([C@@H](C)O)NC(=O)[C@H](CCCNC(=N)N)NC(=O)[C@H](CO)NC3=O)NC(=O)[C@H](CCCCN)NC(=O)[C@H](CC(=O)O)NC(=O)[C@H](CCCNC(=N)N)NC(=O)[C@H](CC(=O)O)NC(=O)[C@@H]2CCCN2C1=O [compound 870] (H-DCLGALRKCIPDRDKCCRPNLVCSRTHRWCKYVF-OH; disulfide 2-17, 9-23, 16-30)
IC50 (hNav1.5; [1]): > 5 µM | IC50 (hNav1.3; use-dependent block, hNav1.3): 1.4 µM | IC50 (hNav1.7; [2]): > 5 µM
